Patent US10668040B2, “Treatment of urea cycle disorders in neonates and infants” (Horizon Therapeutics, LLC, priority 2017, dated 2020)

Experiments:
Type in all cases: in vivo, human
[1] = Example 3: urinary PAGN concentrations (first full day and up to end of trial)
Experimental: Urinary PAGN Concentrations on the First Full Day of RAVICTI Dosing
(§1) PK Evaluable Population: all subjects from the safety population with individual concentration-time profiles that allow computation of meaningful PK parameter values. Measurements were taken at hour 0, between 0.5 and 1.5 hours, between 1.5 and 2.5 hours, between 4 and 6 hours, between 7.5 and 8.5 hours, and between 12 and 24 hours after the first dose of the day on day 1 for stable subjects and on day 2 for subjects in HAC.
Urinary PAGN Concentrations Up to End of Trial
(§2) PK Evaluable Population: all subjects from the safety population with individual concentration-time profiles that allow computation of meaningful PK parameter values. Measurements were taken at day 7, month 1, month 2, month 3, month 4, month 5, month 6, month 9, month 12, month 15, month 18, month 24, and at the end of the trial.

[2] = tested on: UCD patients; assay: HPN-100-009 (Example 2): rate of hyperammonemic crises (HACs); conditions: Age 2 Months to <2 Years
Text: HPN-100-009 is an open-label study consisting of a transition period to HPN-100, followed by a safety extension period for at least 6 months and up to 24 months of treatment with HPN-100, depending on age at enrollment. It is designed to capture information important for evaluating safety, pharmacokinetics and efficacy in young children. Subjects eligible for this study included patients ranging from newborn to <2 years of age with either a diagnosed or clinically suspected UCD. Ten infant and toddler (28 days to 23 months) subjects were enrolled in this study.
Subjects aged 2 months to <2 years received RAVICTI® Oral Liquid administered just prior to breastfeeding or intake of formula or food. The recommended dosing regimen is 3-6 times per day depending on feeding schedule and at the discretion of the Investigator. The starting dose of RAVICTI® was based on UCD status (newly diagnosed, or already stable on sodium phenylbutyrate [NaPBA] and/or sodium benzoate [NaBz]) and whether a hyperammonemic crisis is present. Subsequently, the dose was adjusted based on clinical and/or ammonia results, according to an algorithm provided in the protocol.
Rate of Hyperammonemic Crises (HACs) During the First 6 Months on RAVICTI®.
End point description. A HAC was defined having signs and symptoms consistent with hyperammonemia (such as but not limited to frequent vomiting, nausea, headache, lethargy, irritability, combativeness, somnolence) associated with high blood ammonia and requiring medical intervention. Rate of HACs prior to enrollment was calculated as sum of (number of HAC)/sum of (subject age in days at the time of enrollment or 365 days, whichever was less) across all subjects in the corresponding group. Rate of HACs per 6 months during the safety extension was calculated as sum of (number of HAC)/sum of (days during first 6 months starting on Day 8 or number days on RAVICTI®, whichever was less) across all subjects in the corresponding group. Safety population: all enrolled subjects who received any amount of study medication. […]

[3] = Example 3: urinary PAA concentrations (first full day and up to end of trial)
Experimental: Urinary PAA Concentrations on the First Full Day of RAVICTI Dosing
as §1
Urinary PAA Concentrations Up to End of Trial
as §2

[4] = HPN-100-009 (Example 2): urinary PAGN concentrations on first full day of dosing
Experimental: Assessment of Urinary PAGN Concentrations on the First Full Day of RAVICTI® Dosing.
End point description. Urinary PAGN concentration was measured through urine collection. PK Evaluable Population: all subjects from the safety population with individual concentration-time profiles that allow computation of meaningful PK parameter values. End point timeframe: Hour 0 and between 0.5 and 1 hour, 1.5 and 2.5 hours, 4 and 6 hours, 7.5 and 8.5 hours, and between 12 and 24 hours after the first dose of the day on Day 1 for stable subjects and on Day 2 for subjects in HAC.

[5] = Age 0 to <2 months, End of trial
[6] = Age 0 to <2 months, first full day, 0.5 to 1.5 hours
[7] = Age 0 to <2 months, first full day, 1.5 to 2.5 hours
[8] = Age 0 to <2 months, first full day, 4 to 6 hours
[9] = Age 0 to <2 months, first full day, 7.5 to 8.5 hours
[10] = Age 0 to <2 months, first full day, 12 to 24 hours
[11] = Age 0 to <2 months, first full day, Hour 0
[12] = Age 2 months to <2 years, Day 7
[13] = Age 2 months to <2 years, End of trial
[14] = Age 2 months to <2 years, Month 1
[15] = Age 2 months to <2 years, Month 2
[16] = Age 2 months to <2 years, Month 3
[17] = Age 2 months to <2 years, Month 4
[18] = Age 2 months to <2 years, Month 5
[19] = Age 2 months to <2 years, Month 6
[20] = Age 2 months to <2 years, Month 9
[21] = Age 2 months to <2 years, Month 15
[22] = Age 2 months to <2 years, Month 18
[23] = Age 2 months to <2 years, first full day, 0.5 to 1.5 hours
[24] = Age 2 months to <2 years, first full day, 1.5 to 2.5 hours
[25] = Age 2 months to <2 years, first full day, 4 to 6 hours
[26] = Age 2 months to <2 years, first full day, 7.5 to 8.5 hours
[27] = Age 2 months to <2 years, first full day, 12 to 24 hours
[28] = Age 2 months to <2 years, first full day, Hour 0

O=C(CCCc1ccccc1)OCC(COC(=O)CCCc1ccccc1)OC(=O)CCCc1ccccc1 [RAVICTI, benzenebutanoic acid, 1′,1″-(1,2,3-propanetriyl) ester]
Urinary PAGN concentration ([1]; Age 0 to <2 months, Day 7): 4643 (±2506); μg/mL | Urinary PAGN concentration [1, 5]: 6939 (±6581); μg/mL | Urinary PAGN concentration ([1]; Age 0 to <2 months, Month 1): 4517 (±2485), μg/mL | Urinary PAGN concentration ([1]; Age 0 to <2 months, Month 2): 4116 (±3137); μg/mL | Urinary PAGN concentration ([1]; Age 0 to <2 months, Month 3): 7037 (±4493); μg/mL | Urinary PAGN concentration ([1]; Age 0 to <2 months, Month 4): 2826 (±1543); μg/mL | Urinary PAGN concentration ([1]; Age 0 to <2 months, Month 5): 6973 (±3682); μg/mL | Urinary PAGN concentration ([1]; Age 0 to <2 months, Month 6): 5883 (±3128); μg/mL | Urinary PAGN concentration ([1]; Age 0 to <2 months, Month 9): 7006 (±4289); μg/mL | Urinary PAGN concentration ([1]; Age 0 to <2 months, Month 12): 5847 (±2992); μg/mL | Urinary PAGN concentration ([1]; Age 0 to <2 months, Month 15): 3915 (±2584); μg/mL | Urinary PAGN concentration [1, 6]: 1828 (±2862); μg/mL | Urinary PAGN concentration [1, 7]: 1746 (±1464); μg/mL | Urinary PAGN concentration [1, 8]: 2260 (±1472); μg/mL | Urinary PAGN concentration [1, 9]: 3530.43 (±3600.4), μg/mL | Urinary PAGN concentration [1, 10]: 4404 (±3766); μg/mL | Urinary PAGN concentration [1, 11]: 3530.43 (±3600.4); μg/mL | Urinary PAGN concentration [1, 12]: 8859 (±10500); μg/mL | Urinary PAGN concentration [1, 13]: 25333 (±21324); μg/mL | Urinary PAGN concentration [1, 14]: 6274 (±4802); μg/mL | Urinary PAGN concentration [1, 15]: 7386 (±6419); μg/mL | Urinary PAGN concentration [1, 16]: 11456 (±14471); μg/mL | Urinary PAGN concentration [1, 17]: 21416 (±33695); μg/mL | Urinary PAGN concentration [1, 18]: 6129 (±8024); μg/mL | Urinary PAGN concentration [1, 19]: 5347 (±3153); μg/mL | Urinary PAGN concentration [1, 20]: 9357 (±7286); μg/mL | Urinary PAGN concentration ([1]; Age 2 months to <2 years, Month 12): 2580 (±286); μg/mL | Urinary PAGN concentration [1, 21]: 6400 (±00000); μg/mL | Urinary PAGN concentration [1, 22]: 5250 (±00000); μg/mL | Urinary PAGN concentration [1, 23]: 4140 (±4399); μg/mL | Urinary PAGN concentration [1, 24]: 3145 (±5045); μg/mL | Urinary PAGN concentration [1, 25]: 5202 (±4547); μg/mL | Urinary PAGN concentration [1, 26]: 3950 (±3068); μg/mL | Urinary PAGN concentration [1, 27]: 7561 (±6956); μg/mL | Urinary PAGN concentration [1, 28]: 3273 (±1993); μg/mL | Rate of HACs During Safety Extension ([2]; Day 8 up to Month 6, n = 9): 0.006 | Rate of HACs During Transition (Days 1-7) ([2]; n = 10): 0 | Rate of HACs Prior to Enrollment ([2]; up to 365 days prior to enrollment, n = 10): 0.11 | Urinary PAA concentration ([3]; Age 0 to <2 months, Day 7): 23.7 (±31.2); μg/mL | Urinary PAA concentration [3, 5]: 11.6 (±9.0); μg/mL | Urinary PAA concentration ([3]; Age 0 to <2 months, Month 1): 14.6 (±17.2); μg/mL | Urinary PAA concentration ([3]; Age 0 to <2 months, Month 2): 12.3 (±13.3); μg/mL | Urinary PAA concentration ([3]; Age 0 to <2 months, Month 3): 14.4 (±10.7); μg/mL | Urinary PAA concentration ([3]; Age 0 to <2 months, Month 4): 6.4 (±7.1); μg/mL | Urinary PAA concentration ([3]; Age 0 to <2 months, Month 5): 13.2 (±14.0); μg/mL | Urinary PAA concentration ([3]; Age 0 to <2 months, Month 6): 5.5 (±00000); μg/mL | Urinary PAA concentration ([3]; Age 0 to <2 months, Month 9): 11.8 (±8.5); μg/mL | Urinary PAA concentration ([3]; Age 0 to <2 months, Month 12): 6.0 (±3.8); μg/mL | Urinary PAA concentration ([3]; Age 0 to <2 months, Month 15): 4.9 (±0.3); μg/mL | Urinary PAA concentration [3, 6]: 46.2 (±58.6); μg/mL | Urinary PAA concentration [3, 7]: 62.5 (±42.8), μg/mL | Urinary PAA concentration [3, 8]: 34.6 (±56.2); μg/mL | Urinary PAA concentration [3, 9]: 22.8 (±25.3); μg/mL | Urinary PAA concentration [3, 10]: 35.2 (±51.0); μg/mL | Urinary PAA concentration [3, 11]: 11.1 (±10.4); μg/mL | Urinary PAA concentration [3, 12]: 5.82 (±2.21); μg/mL | Urinary PAA concentration [3, 13]: 7.0 (±5.16); μg/mL | Urinary PAA concentration [3, 14]: 4.44 (±4.61); μg/mL | Urinary PAA concentration [3, 15]: 3.69 (±1.82); μg/mL | Urinary PAA concentration [3, 16]: 4.65 (±0.49); μg/mL | Urinary PAA concentration [3, 17]: 7.14 (±00000); μg/mL | Urinary PAA concentration [3, 18]: 3.27 (±1.96); μg/mL | Urinary PAA concentration [3, 19]: 1.59 (±00000); μg/mL | Urinary PAA concentration [3, 20]: 4.10 (±1.65); μg/mL | Urinary PAA concentration [3, 21]: 2.04 (±00000); μg/mL | Urinary PAA concentration [3, 22]: 1.64 (±00000); μg/mL | Urinary PAA concentration [3, 23]: 6.50 (±3.39); μg/mL | Urinary PAA concentration [3, 24]: 7.29 (±4.10); μg/mL | Urinary PAA concentration [3, 25]: 2.60 (±2.18); μg/mL | Urinary PAA concentration [3, 26]: 4.48 (±4.38); μg/mL | Urinary PAA concentration [3, 27]: 4.31 (±2.33); μg/mL | Urinary PAA concentration [3, 28]: 18.78 (±27.33); μg/mL | Urinary PAGN concentration ([4]; Age 2 Months to <2 Years, Hour 0.5 to 1): 4140.2 (±4398.8) μg/mL | Urinary PAGN concentration ([4]; Age 2 Months to <2 Years, Hour 1.5 to 2.5): 3145.2 (±5044.5) μg/mL | Urinary PAGN concentration ([4]; Age 2 Months to <2 Years, Hour 4 to 6): 5201.6 (±4546.6) μg/mL | Urinary PAGN concentration ([4]; Age 2 Months to <2 Years, Hour 7.5 to 8.5): 4290 (±3147.2) μg/mL | Urinary PAGN concentration ([4]; Age 2 Months to <2 Years, Hour 12 to 24): 7561.1 (±6955.7) μg/mL | Urinary PAGN concentration ([4]; Age 2 months to <2 years, Hour 0): 3478.3 (±1775.4) μg/mL
